From patent publication US20150246938A1, “NOVEL OLEFIN DERIVATIVE” (SHIONOGI & CO., LTD., priority 2011, published 2015)

The compounds below were run against T1, recombinant human ACC2 (Homo sapiens, UniProt O00763) (assay: Measurement of inhibitory activity on human ACC2 (MALDI-TOF MS, acetyl CoA to malonyl CoA conversion)). Settings: not given.
T1 construct: a cDNA encoding human ACC2 (27-2458) was cloned from human kidney cDNA library (Clontech); His-tag (N); made in house; host or cells: Sf-9 insect cells (Bac-to-Bac baculovirus)
T1 sequence (O00763 27-2458): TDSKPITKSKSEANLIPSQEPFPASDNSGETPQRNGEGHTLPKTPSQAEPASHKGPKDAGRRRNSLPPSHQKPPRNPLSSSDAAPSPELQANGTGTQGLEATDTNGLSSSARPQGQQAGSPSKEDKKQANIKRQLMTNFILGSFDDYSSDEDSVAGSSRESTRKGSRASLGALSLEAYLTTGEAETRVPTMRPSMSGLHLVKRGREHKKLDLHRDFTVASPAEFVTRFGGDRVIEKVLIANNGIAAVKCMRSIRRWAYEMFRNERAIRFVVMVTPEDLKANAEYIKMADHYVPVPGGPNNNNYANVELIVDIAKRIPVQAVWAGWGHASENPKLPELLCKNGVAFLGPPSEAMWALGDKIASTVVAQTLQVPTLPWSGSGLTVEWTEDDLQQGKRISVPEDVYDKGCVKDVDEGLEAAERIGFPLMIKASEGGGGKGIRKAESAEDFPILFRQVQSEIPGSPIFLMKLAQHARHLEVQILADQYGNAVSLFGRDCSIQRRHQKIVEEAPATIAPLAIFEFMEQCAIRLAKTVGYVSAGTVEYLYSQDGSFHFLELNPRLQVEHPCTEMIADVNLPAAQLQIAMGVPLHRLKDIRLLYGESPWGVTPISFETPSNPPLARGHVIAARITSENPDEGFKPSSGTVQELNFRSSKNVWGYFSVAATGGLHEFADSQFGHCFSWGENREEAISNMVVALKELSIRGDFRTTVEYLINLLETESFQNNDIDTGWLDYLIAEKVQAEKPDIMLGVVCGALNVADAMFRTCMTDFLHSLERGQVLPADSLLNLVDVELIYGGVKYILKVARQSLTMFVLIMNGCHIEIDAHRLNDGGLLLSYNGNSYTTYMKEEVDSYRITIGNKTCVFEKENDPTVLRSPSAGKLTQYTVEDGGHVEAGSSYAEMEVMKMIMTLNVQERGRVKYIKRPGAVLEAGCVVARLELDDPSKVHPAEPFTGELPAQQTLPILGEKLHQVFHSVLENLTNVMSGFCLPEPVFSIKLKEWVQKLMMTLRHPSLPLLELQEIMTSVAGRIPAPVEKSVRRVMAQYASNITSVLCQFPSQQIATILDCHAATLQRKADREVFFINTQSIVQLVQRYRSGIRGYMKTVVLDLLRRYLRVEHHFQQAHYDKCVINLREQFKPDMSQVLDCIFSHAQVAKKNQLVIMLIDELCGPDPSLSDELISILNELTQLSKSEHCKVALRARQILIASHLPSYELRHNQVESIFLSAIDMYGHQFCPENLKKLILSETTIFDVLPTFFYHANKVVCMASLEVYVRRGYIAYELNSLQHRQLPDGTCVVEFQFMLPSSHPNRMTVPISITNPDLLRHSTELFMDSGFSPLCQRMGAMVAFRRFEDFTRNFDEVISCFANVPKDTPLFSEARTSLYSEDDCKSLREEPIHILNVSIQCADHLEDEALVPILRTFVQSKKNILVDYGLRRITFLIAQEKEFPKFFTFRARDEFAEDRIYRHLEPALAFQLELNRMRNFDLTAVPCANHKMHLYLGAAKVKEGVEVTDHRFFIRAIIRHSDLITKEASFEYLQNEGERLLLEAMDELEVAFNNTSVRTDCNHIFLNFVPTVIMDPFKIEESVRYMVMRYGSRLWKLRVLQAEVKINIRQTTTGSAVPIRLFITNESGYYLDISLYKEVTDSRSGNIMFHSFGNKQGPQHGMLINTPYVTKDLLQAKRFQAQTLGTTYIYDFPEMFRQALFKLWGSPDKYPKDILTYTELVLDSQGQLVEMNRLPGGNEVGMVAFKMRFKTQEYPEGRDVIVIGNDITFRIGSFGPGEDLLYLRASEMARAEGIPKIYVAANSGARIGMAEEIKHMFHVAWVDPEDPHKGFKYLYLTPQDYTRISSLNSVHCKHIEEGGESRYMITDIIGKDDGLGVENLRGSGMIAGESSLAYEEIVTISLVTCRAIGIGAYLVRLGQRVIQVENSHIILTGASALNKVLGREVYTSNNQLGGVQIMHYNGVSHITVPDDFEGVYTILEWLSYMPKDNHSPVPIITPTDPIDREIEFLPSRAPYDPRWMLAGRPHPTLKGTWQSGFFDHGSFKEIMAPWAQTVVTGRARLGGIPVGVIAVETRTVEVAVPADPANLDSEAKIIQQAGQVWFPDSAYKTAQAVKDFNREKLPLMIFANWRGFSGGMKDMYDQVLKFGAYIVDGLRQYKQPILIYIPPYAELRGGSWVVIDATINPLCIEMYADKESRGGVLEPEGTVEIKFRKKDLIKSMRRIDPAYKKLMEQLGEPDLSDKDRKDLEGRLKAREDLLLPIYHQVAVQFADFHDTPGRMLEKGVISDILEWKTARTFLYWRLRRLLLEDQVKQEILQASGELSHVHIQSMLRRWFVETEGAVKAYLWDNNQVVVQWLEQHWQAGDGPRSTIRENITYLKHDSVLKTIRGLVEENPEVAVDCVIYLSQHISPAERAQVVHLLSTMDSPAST
Assay type: biochemical

IC50 | Compound
48 nM | CCC(F)(F)c1ccc(Oc2ccc(/C=C/[C@H](C)NC(N)=O)cn2)c(Cl)c1 [Compound I-393]
300 nM | CC(=O)N[C@@H](C)/C=C/c1cnc(Oc2cc(O)c(OCC3CC3)cc2Cl)nc1 [Compound I-406]
200 nM | CC(=O)N[C@@H](C)/C=C/c1ccc(Oc2ccc(-c3cnccn3)cc2Cl)nc1 [Compound I-412]
360 nM | CC(=O)N[C@@H](C)/C=C/c1cc(Oc2ccc(OCC3CC3)cc2Cl)no1 [Compound I-381]
61 nM | CCNC(=O)N[C@@H](C)/C=C/c1cnc(Oc2ccc(OCC3CC3)cc2Cl)s1 [Compound I-195]
3000 nM | CCCc1ccc(Oc2ccc(/C=C/[C@H](C)NC(=O)Cc3nccs3)cn2)c(Cl)c1 [Compound I-423]
2100 nM | COc1cc(Oc2ncc(/C=C/[C@H](C)NC(C)=O)cn2)c(Cl)cc1OCC1CC1 [Compound I-407]
120 nM | CC(=O)N[C@@H](C)/C=C/c1ccc(Oc2ccc(-c3nc4ccccc4s3)cc2Cl)nc1 [Compound I-415]
2000 nM | CCCn1cc(Oc2ccc(/C=C/[C@H](C)NC(C)=O)cn2)cn1 [Compound I-388]

Same assay, conditions: inhibition activity on human ACC2, Table 79; read-out: IC50

IC50 | Compound
550 nM | CC(=O)NCC(=O)N[C@@H](C)/C=C/c1cnc(Oc2ccc(OCC3CC3)cc2Cl)s1 [Compound I-78]
37 nM | CC(=O)N[C@@H](C)/C=C/c1ccc(Oc2ccc(OC(C)C)cc2Cl)nc1 [Compound I-37]
16 nM | CCCOc1ccc(Oc2ncc(/C=C/[C@H](C)NC(C)=O)s2)c(Cl)c1 [Compound I-2]
31 nM | CCOc1ccc(Oc2ccc(/C=C/[C@H](C)NC(C)=O)cn2)cc1 [Compound I-16]
460 nM | C[C@@H](/C=C/c1cnc(Oc2ccc(OCC3CC3)cc2Cl)s1)NC(=O)C1CCOCC1 [Compound I-84]
12 nM | CC(=O)N[C@@H](C)/C=C/c1ccc(Oc2ccc(OCC3CC3)nc2)nc1 [Compound I-33]
5.2 nM | CC(=O)N[C@@H](C)/C=C/c1ccc(Oc2ccc(OCC3CC3)c(Cl)c2)nc1 [Compound I-23]
310 nM | CCOc1ccc(C(F)(F)c2ccc(/C=C/[C@H](C)NC(C)=O)cn2)c(Cl)c1 [Compound I-62]
480 nM | COC(=O)c1ccn(CC(=O)N[C@@H](C)/C=C/c2cnc(Oc3ccc(OCC4CC4)cc3Cl)s2)n1 [Compound I-113]

Same assay, conditions: inhibition activity on human ACC2, Table 80; read-out: IC50

IC50 | Compound
4.9 nM | C[C@@H](/C=C/c1cnc(Oc2ccc(OCC3CC3)cc2Cl)s1)NC(=O)c1ccnc(C(=O)NCCN2CCOCC2)c1 [Compound I-208]
490 nM | CCCOc1ccc(Oc2ncc(/C=C/[C@H](C)NC(=O)c3ccnc(N4CCOCC4)c3)s2)c(Cl)c1 [Compound I-165]
2700 nM | CCN1Cc2ccc(C(=O)N[C@@H](C)/C=C/c3cnc(Oc4ccc(OCC5CC5)cc4Cl)s3)cc2C1=O [Compound I-154]
87 nM | C[C@@H](/C=C/c1cnc(Oc2ccc(OCC3CC3)cc2Cl)s1)NC(=O)c1ccnc(CO)c1 [Compound I-237]
300 nM | C[C@@H](/C=C/c1cnc(Oc2ccc(OCC3CC3)cc2Cl)s1)NC(=O)NCCC(F)(F)F [Compound I-194]
44 nM | CCNC(=O)c1cc(C(=O)N[C@@H](C)/C=C/c2cnn(Cc3ccc(OCC4CC4)cc3Cl)c2)ccn1 [Compound I-233]
42 nM | CC(=O)Nc1cc(C(=O)N[C@@H](C)/C=C/c2cnc(Oc3ccc(OCC4CC4)cc3Cl)s2)ccn1 [Compound I-135]
800 nM | C[C@@H](/C=C/c1cnc(Oc2ccc(OCC3CC3)cc2Cl)s1)NC(=O)c1cccc(C2=NCCO2)c1 [Compound I-143]
110 nM | CCOc1ccc(Oc2ccc(/C=C/[C@H](C)NC(N)=O)cn2)c(Cl)c1 [Compound I-184]
150 nM | C[C@@H](/C=C/c1cnc(Oc2ccc(OCC3CC3)cc2Cl)s1)NC(=O)Cc1ccncc1 [Compound I-122]
12 nM | CCOC(=O)c1cc(C(=O)N[C@@H](C)/C=C/c2cnc(Oc3ccc(OCC4CC4)cc3Cl)s2)ccn1 [Compound I-136]
300 nM | C[C@@H](/C=C/c1cnn(Cc2ccc(OCC3CC3)cc2Cl)c1)NC(=O)c1ccnc(C(N)=O)c1 [Compound I-235]
430 nM | CCOC(=O)CCNc1cc(C(=O)N[C@@H](C)/C=C/c2cnc(Oc3ccc(OCC4CC4)cc3Cl)s2)ccn1 [Compound I-247]

Same assay, conditions: inhibition activity on human ACC2, Table 82; read-out: IC50

IC50 | Compound
3900 nM | CCCc1cccc(Oc2ccc(/C=C/[C@H](C)NC(C)=O)cn2)n1 [Compound I-330]
240 nM | CC(=O)N[C@@H](C)/C=C/c1ccc(Oc2ccc(C3=CCOCC3)cc2Cl)nc1 [Compound I-352]
170 nM | CCCc1ccc(Oc2ncc(/C=C/[C@H](C)NC(C)=O)cn2)cc1Cl [Compound I-324]
15 nM | CC(=O)NC(C)/C(F)=C/c1ccc(Oc2ccc(OCC3CC3)cc2Cl)nc1 (stereo not drawn) [Compound I-366]
340 nM | CC(=O)N[C@@H](C)/C=C/c1ccc(Oc2ccc(C(C)=O)cc2Cl)nc1 [Compound I-327]
47 nM | CCOc1ccc(Oc2ncc(/C=C/[C@H](C)NC(C)=O)cc2Cl)c(Cl)c1 [Compound I-334]
23 nM | CCCCc1ccc(Oc2ccc(/C=C/[C@H](C)NC(C)=O)cn2)c(Cl)c1 [Compound I-337]
6600 nM | CC(=O)N[C@@H](C)/C=C/c1ccc(Oc2ccc(-c3cnoc3)cc2Cl)nc1 [Compound I-349]
46 nM | CC(=O)N[C@@H](C)/C=C/c1ccc(Oc2ccc(-c3cccc(C)c3)cc2Cl)nc1 [Compound I-343]
140 nM | CC(=O)N[C@@H](C)/C=C/c1ccc(Oc2ccc(S(=O)(=O)CC(C)C)cc2Cl)nc1 [Compound I-367]
450 nM | CC(=O)N[C@@H](C)/C=C/c1cnc(Oc2ccc(OCC3CC3)cc2Cl)n1C [Compound I-341]
780 nM | CCCc1ccc(Oc2ccc(/C=C/[C@H](C)NC(=O)C(=O)OCC)cn2)c(Cl)c1 [Compound I-374]

Compound | IC50
CC(=O)N[C@@H](C)/C=C/c1ccc(Oc2ccc(C3=CCN(C)CC3)cc2Cl)nc1 [Compound I-353] | 2600 nM

Same assay, conditions: inhibition activity on human ACC2, Table 84; read-out: IC50

IC50 | Compound
230 nM | CC(=O)N[C@@H](C)/C=C/c1cnc(Oc2cc3c(cc2Cl)OC(C)(C)C3)cn1 [Compound I-508]
51 nM | CC(=O)N[C@@H](C)/C=C/c1cnc(Oc2ccc(C(C)(C)C)cc2Cl)cn1 [Compound I-497]
73 nM | CCOc1ccc(Oc2ncc(/C=C/[C@H](C)NC(C)=O)cc2F)c(Cl)c1 [Compound I-446]
24 nM | CC(=O)N[C@@H](C)/C=C/c1ccc(Oc2ccc3c(c2Cl)CCC3)nc1 [Compound I-435]
150 nM | CC(=O)N[C@@H](C)/C=C/c1ccc(Oc2ccc(-c3ncc(F)cn3)cc2)nc1 [Compound I-493]
8.2 nM | CCOc1ccc(OCc2cccc(/C=C/[C@H](C)NC(C)=O)c2)c(Cl)c1 [Compound I-506]
560 nM | CCOc1ccc(Oc2ccc(/C=C/C(C)CNC(C)=O)cn2)c(Cl)c1 (stereo not drawn) [I’-1]
42 nM | CC(=O)N[C@@H](C)/C=C/c1ccc(Oc2ccc(OCC3CC3)cc2Cl)cn1 [Compound I-490]
9.7 nM | CCc1nc2ccc(Oc3ccc(/C=C/[C@H](C)NC(C)=O)cn3)c(Cl)c2s1 [Compound I-474]
6 nM | CC(=O)N[C@@H](C)/C=C/c1cnc(Oc2ccc3nc(C(F)(F)F)sc3c2Cl)cn1 [Compound I-510]
31 nM | CC(=O)N[C@@H](C)/C=C/c1ccc(Oc2ccc3sc(C)nc3c2Cl)nc1 [Compound I-501]
520 nM | CCCc1ccc(Oc2ncc(/C=C/[C@H](C)NC(C)=O)cn2)c(Cl)c1 [Compound I-432]
21 nM | CCc1nc2ccc(Oc3ccc(/C=C/[C@H](C)NC(C)=O)cn3)cc2o1 [Compound I-495]
37 nM | CC(=O)N[C@@H](C)/C=C/c1ccc(Oc2ccc(-c3ncc(F)cn3)cc2Cl)nc1 [Compound I-454]
42 nM | CC(=O)N[C@@H](C)/C=C/c1ccc(Oc2ccc3c(c2)CCCO3)nc1 [Compound I-444]
860 nM | CC(=O)N[C@@H](C)/C=C/c1ccc(Oc2ccc(-c3ccc(C#N)cc3)cc2)nc1 [Compound I-515]
210 nM | CCCc1ccc(Oc2ccc(/C=C/[C@H](C)NC(C)=O)nc2)c(Cl)c1 [Compound I-496]
96 nM | CC(=O)N[C@@H](C)/C=C/c1ccc(Oc2ccc(-c3ccc(F)cc3)cc2)nc1 [Compound I-514]
38 nM | CCc1nc2cc(Cl)c(Oc3ccc(/C=C/[C@H](C)NC(C)=O)cn3)cc2s1 [Compound I-487]
180 nM | CC(=O)N[C@@H](C)/C=C/c1ccc(Oc2ccc3c(c2)OCC3)nc1 [Compound I-448]

Same assay, conditions: inhibition activity on human ACC2, untitled table (Table 81); read-out: IC50

IC50 | Compound
1300 nM | CC(=O)N[C@@H](C)/C=C/c1ccc(Oc2cncc(OCC3CC3)c2)nc1 [Compound I-293]
96 nM | CC(=O)N[C@@H](C)/C=C/c1ccc(Oc2ccc(NC(=O)CC3CC3)cc2Cl)nc1 [Compound I-251]
510 nM | CCCc1cncc(Oc2ccc(/C=C/[C@H](C)NC(C)=O)cn2)c1 [Compound I-302]
58 nM | CC(=O)N[C@@H](C)/C=C/c1ccc(Oc2ccc(C3CC3)c(Cl)c2)nc1 [Compound I-298]
130 nM | CC(=O)N[C@@H](C)/C=C/c1ccc(Oc2ccc(F)c(OC(C)C)c2)nc1 [Compound I-281]
13 nM | CC(=O)NC(C)/C(C)=C/c1ccc(Oc2ccc(OCC3CC3)cc2Cl)nc1 (stereo not drawn) [Compound I-282]
44 nM | CC(=O)N[C@@H](C)/C=C/c1ccc(Oc2ccc(-c3ccccc3)cc2Cl)nc1 [Compound I-267]
570 nM | CCNC(=O)c1cc(C(=O)N[C@@H](C)/C=C/c2cnn(Cc3ccc(C(C)C)cc3)c2)ccn1 [Compound I-312]
79 nM | CCOc1ccc(F)c(Oc2ccc(/C=C/[C@H](C)NC(C)=O)cn2)c1 [Compound I-278]
110 nM | CC(=O)N[C@@H](C)/C=C/c1ccc(Oc2ccc(-c3ncco3)cc2Cl)nc1 [Compound I-268]
17 nM | CC#Cc1ccc(Oc2ccc(/C=C/[C@H](C)NC(C)=O)cn2)c(Cl)c1 [Compound I-275]
